The values that follow come from patent publication US20170304450A1, “PARENTERAL COMPOSITIONS AND USES THEREOF” (CEVA SANTE ANIMALE, priority 2014, published 2017).

Read-outs that look alike come from different tables or passages of the source.

A short description of data set [1]: Tests of equivalence of bioavailability: plasma pharmacokinetic parameters after subcutaneous injection. The data set is classed as in vivo, bovines. The conditions noted are these: both sexes, bovine (cattle), sc. How it is done: 24 young male and female bovines aged 11 months and with an average weight of 220 kg are treated individually with 1 subcutaneous injection of 40 mg/kg of florfenicol (Nuflor 450®—Merck, 450 mg of florfenicol/mL). Blood samples are taken regularly during the 7 days following this injection. This is followed by a wash-out period of 20 days. The animals then receive a subcutaneous injection of 0.5 mg/kg meloxicam (Metacam®, Boehringer Ingelheim, 5 mg of meloxicam/mL). Blood samples are taken regularly during the 7 days following this injection. This is followed by a new wash-out period of 20 days. […] Blood samples are taken regularly during the 7 days following this injection. The blood samples obtained during this treatment campaign make it possible to evaluate the pharmacokinetic parameters (Cmax and AUC0-t) and a pharmacological parameter (useful life of the antibiotic) by conventional methods known by a person skilled in the art.

Data set [2] has as its system Histophilus somni. In words: Useful life of the antibiotic (time plasma concentration is above MIC90). Type of data set: in vivo. The conditions noted are these: time plasma florfenicol is above MIC90 0.2 μg/mL for Histophilus somni; bovines, subcutaneous. On the procedure: (§1) Blood samples are taken regularly during the 7 days following this injection. This is followed by a wash-out period of 20 days. The animals then receive a subcutaneous injection of 0.5 mg/kg meloxicam (Metacam®, Boehringer Ingelheim, 5 mg of meloxicam/mL). Blood samples are taken regularly during the 7 days following this injection. This is followed by a new wash-out period of 20 days. […] Blood samples are taken regularly during the 7 days following this injection. […] The useful life of an antibiotic is the time (in hours) during which the plasma concentration of a given antibiotic is above its MIC90 for the 3 representative microbes Mannheimia haemolytica, Histophilus somni, Pasteurella multocida.

In data set [3] the test system is Mannheimia haemolytica. The data set is described as above. Type of data set: in vivo. The conditions noted are these: time plasma florfenicol is above MIC90 1 μg/mL for Mannheimia haemolytica; bovines, subcutaneous. On the procedure: as §1
Data set [4] concerns Pasteurella multocida. The description is as above. The data set is classed as in vivo. The conditions noted are these: time plasma florfenicol is above MIC90 0.5 μg/mL for Pasteurella multocida; bovines, subcutaneous. On the procedure: as §1
In data set [5] the test system is Mannheimia haemolytica. The conditions noted are these: Mannheimia haemolytica reference strain; cited from earlier work.
The test system of data set [6] is Histophilus somni. The conditions noted are these: Histophilus somni reference strain; cited from earlier work.
Data set [7] deals with Pasteurella multocida. The conditions noted are these: Pasteurella multocida reference strain; cited from earlier work.

Take `Cc1cnc(NC(=O)C2=C(O)c3ccccc3S(=O)(=O)N2C)s1` [Meloxicam, meloxicam]: the AUC(0-t) in data set [1] (plasma, 0.5 mg/kg, read-out: AUC0-t of meloxicam in plasma) turned out to be 40.6 ± 7.12 µg·h/mL. Besides, the maximum concentration (Cmax) (commonly the highest concentration seen after dosing) in data set [1] (plasma, 0.5 mg/kg, read-out: Cmax of meloxicam in plasma) was 2240 ± 357 ng/mL.

Turning to `CS(=O)(=O)c1ccc([C@@H](O)[C@@H](CF)NC(=O)C(Cl)Cl)cc1` [Florfenicol, florfenicol], in data set [1] (in vivo, 40 mg/kg), the AUC(0-t) turned out to be 196 ± 45 µg·h/mL. The Cmax in data set [1] (in vivo, 40 mg/kg) stood at 3500 ± 1040 ng/mL. The Calculated antibiotic life was 167.78 ± 0.13 h in the data set on Histophilus somni [2], 66.44 ± 20.65 h with Mannheimia haemolytica [3] and 132.03 ± 27.22 h with Pasteurella multocida [4]. Further, the “reference MIC90” value in the data set on Mannheimia haemolytica [5] was 1 µg/mL; in the data set on Histophilus somni [6] it was 0.2 µg/mL; in the data set with Pasteurella multocida [7], 0.5 µg/mL.
